In patent US11040056B2, “Benzimidazoles that enhance the activity of oligonucleotides” (The University of North Carolina at Chapel Hill, priority 2018, dated 2021):

Tests used:
[1] = Alamar Blue cytotoxicity assay; type: cell-based; conditions: human, HeLa Luc705 cells; Alamar Blue cytotoxicity; read-out: TC50
Description: (§1) FIG. 1B-1E. Effects with SSOs. FIG. 1B Structure of UNC2383. FIG. 1C Compound 2383 enhances SSO effects. Cells were incubated in 24-well plates with 100 nM SSO623 or its mismatched control (MM) for 16 h in DMEM+10% FBS, rinsed and then treated with various concentrations of 2383 for 2 h. The cells were then rinsed and incubation continued for an additional 4 h in DMEM+10% FBS. Cells were rinsed twice in PBS and luciferase activity (RLU) and cell protein determined. The larger round symbol indicates the MM oligonucleotide. Means+/−SE. N=3. FIG. 1D Kinetics of 2383 action. Cells were preloaded with 100 nM SSO623 and then exposed to 2383 for various periods after which the compound was removed. The cells were further incubated and then luciferase and protein determined. The total time of incubation in each case was 6 h. FIG. 1E Cytotoxicity of 2383. HeLa Luc705 or NIH-3T3-MDR cells were exposed to 2383 as in (FIG. 1C) then incubated for 24 h in DMEM plus 10% FBS and tested using the Alamar Blue cytotoxicity assay. Means+/−SE. N=3.
(§2) FIG. 3. Effect and Cytotoxicity of Analogs. The effect of selected UNC2383 analogs on luciferase induction by SSO623 was measured as described in Methods and in the legend of FIG. 1B-1E. Cytotoxicity was measured using the Alamar Blue method as in FIG. 1E. MM10 is the effect of 10 uM compound in the presence of a mismatched oligonucleotide. Means and SE. N=3.
(§3) SSO-mediated luciferase induction assays were conducted as previously described. (18) In short, HeLaLuc705 cells in 24 well culture plates were preincubated with SSO623 followed by brief treatment with the small molecule; at intervals thereafter, luciferase activity and protein content were determined. ASO mediated inhibition of MDR1 gene expression utilized an Alexa 488 labeled anti-P-glycoprotein antibody and flow cytometry to measure Pgp expression as described. (20) The anti-MDR1 sequence is 5′-CCATCccgacctcgcGCTCC-3′(SEQ ID NO: 5) (all phosphorothiopate with 2-O-Me residues in capitals). Cytotoxicity of 2383 was monitored using the Alamar Blue assay. (30)

[2] = tested on: HeLa Luc705 cells; test: Alamar Blue cytotoxicity assay; type: cell-based
Description: as §1, §2, §3

[3] = tested on: EGFP654 transgenic mouse; test: In vivo EGFP splice correction in EGFP654 transgenic mice
Description: FIG. 10A-10E. In vivo effects-RNA. EGFP654 mice were treated with SSO623 or a mismatched control (MM) and then received UNC2383 or diluent (N=3). RT-PCR with gel analysis was used to detect correctly or incorrectly spliced EGFP mRNA. The gel images were quantitated using Fiji software. Gel image for liver FIG. 10A. The lower band (87 bp) is correctly spliced EGFP mRNA, while the upper band (160 bp) is uncorrected. FIG. 10B-10E Quantitation of splice correction in liver FIG. 10B, kidney FIG. 10C, intestine FIG. 10D, and lung FIG. 10E. The bars indicate the ratio of correctly spliced to incorrectly spliced mRNA×100. […] EGFP immunostaining was performed in liver, lung, and intestine tissue and analyzed by confocal microscopy. […]
Effects of UNC2383 on endosome stability were monitored in cell culture models as previously described. […] Live cells were imaged by fluorescence confocal microscopy with or without treatment with UNC2383 or its analogs. […] Co-localization of TAMRA labeled SSO 623 with marker proteins was quantitated using Fiji (ImageJ) software and expressed as a Manders' Correlation Coefficient. […] EGFP protein expression was monitored by immunostaining with an anti-EGFP antibody (Abcam) using techniques previously described. […]
PCR techniques. […] The PCR products were separated on 1.5% agarose gels and bands were visualized by staining with Gel RedTMand quantitated using a Biorad ChemiDoc XRS+ scanner. […]

Which CC50 at 2 h [1] does the source give for `O=C(Nc1nc2ccccc2n1CCN1CCCC1)c1cc2cc(Cl)ccc2o1` [UNC2383] here?
Its CC50 at 2 h is 15 µM.

What about the “window between effective and toxic concentrations compared to UNC10217938” value [2] of the same compound?
Its value is “narrower”.

And the “concentrations showing little toxicity” value ([2]; 2 h exposure, then 24 h, FIG. 1E)?
Its value is ≤ 10 µM.

And the TC50/EC50 ([2]; ratio of cytotoxicity TC50 to luciferase induction EC50)?
Its TC50/EC50 is 7.5.

What about the “correctly spliced EGFP message (RT-PCR)” value ([3]; 35 mg/kg SSO623 i.p. two days, then 5 mg/kg UNC2383 i.p., liver, kidney, lung, intestine, 5 h) of the same compound?
Its value is “increase in correctly spliced EGFP message”.

What about the “EGFP protein expression (immunostaining)” value ([3]; SSO623 plus UNC2383, bronchi, intestinal crypts, 24 h) of the same compound?
Its value is “expressed EGFP”.
